Source: patent publication US12138262B2, “Process of manufacture of a compound for inhibiting the activity of SHP2, as well as products resulting from acid addition” (Novartis AG, priority 2018, dated 2024)

Columns and labels:
Type in all cases: physicochemical
[1] = Dynamic vapor sorption / water content versus relative humidity; settings: 10% RH to 50% RH at room temperature
Method: DVS/Dynamic Vapor Sorption) data were obtained as follows: Dynamic vapor sorption was performed using a SMS Advantage system. Approximately 10 mg of sample was subjected to varying humidities between 0% RH and 95% RH at 25° C. Evaluation was performed using the system software.

[2] = Excipient compatibility: degradation in experimental excipient mixtures at 50° C./75% RH
[3] = Form conversion in aqueous organic solvent mixtures; settings: aqueous organic solvent mixtures with very small quantities of water (1-2%)

## C[C@@H]1OCC2(CCN(c3cnc(Sc4ccnc(N)c4Cl)c(N)n3)CC2)[C@@H]1N.C[C@@H]1OCC2(CCN(c3cnc(Sc4ccnc(N)c4Cl)c(N)n3)CC2)[C@@H]1N.O.O=C(O)CCC(=O)O.O=C(O)CCC(=O)O [Example 6, (3S,4S)-8-(6-amino-5-((2-amino-3-chloropyridin-4-yl)thio)pyrazin-2-yl)-3-methyl-2-oxa-8-azaspiro[4.5]decan-4-amine, succinate (1:1) hemihydrate, modification (form) HA]
[1]
  water content over 10% RH to 50% RH: constant water content
[2]; all four experimental excipient mixtures (Mixtures 1-4)
  degradation levels in excipient mixtures: acceptable degradation levels

## C[C@@H]1OCC2(CCN(c3cnc(Sc4ccnc(N)c4Cl)c(N)n3)CC2)[C@@H]1N [Example 13, (3S,4S)-8-(6-amino-5-((2-amino-3-chloropyridin-4-yl)thio)pyrazin-2-yl)-3-methyl-2-oxa-8-azaspiro[4.5]decan-4-amine free base Modification A]
[2]; mixture containing HPMC (Mixture 2)
  degradation with excipient mixture containing HPMC: strong degradation

## C[C@@H]1OCC2(CCN(c3cnc(Sc4ccnc(N)c4Cl)c(N)n3)CC2)[C@@H]1N.O=C(O)CCCCC(=O)O [Example 10, (3S,4S)-8-(6-amino-5-((2-amino-3-chloropyridin-4-yl)thio)pyrazin-2-yl)-3-methyl-2-oxa-8-azaspiro[4.5]decan-4-amine adipate (1:1), Modification A]
[2]; mixture containing mannitol, Ac-di-Sol and microcrystalline cellulose (Mixture 4)
  degradation with mixture containing mannitol, Ac-di-Sol and microcrystalline cellulose: strong degradation

## C[C@@H]1OCC2(CCN(c3cnc(Sc4ccnc(N)c4Cl)c(N)n3)CC2)[C@@H]1N.O=C(O)CCC(=O)O [Example 11, (3S,4S)-8-(6-amino-5-((2-amino-3-chloropyridin-4-yl)thio)pyrazin-2-yl)-3-methyl-2-oxa-8-azaspiro[4.5]decan-4-amine, succinate (1:1), anhydrous form, Modification A]
[3]
  conversion of solid form: rapidly converted into Modification HA
